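Interpolation was linear, between the two tested concentrations surrounding the appropriate level; five concentrations were tested over 48 hours in 96-well plates. Here, GI50 denotes the concentration required for 50% inhibition of growth. TGI marks complete inhibition of growth.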
Experiments:
Experiment in all cases: NCI anticancer screen, dose series, 48 h
UO-31 renal = test system: UO-31 renal
HOP-92 NSCLC = test system: HOP-92 NSCLC
SNB-19 CNS = test system: SNB-19 CNS
NCI-H460 lung = test system: NCI-H460 lung
786-0 renal = test system: 786-0 renal
UACC-257 melanoma = test system: UACC-257 melanoma
U251 CNS = test system: U251 CNS
SF-295 CNS = test system: SF-295 CNS
MOLT-4 leukemia = test system: MOLT-4 leukemia
SF-539 CNS = test system: SF-539 CNS

| SMILES | GI50 (UO-31 renal) [µM] | TGI (UO-31 renal) [µM] | GI50 (HOP-92 NSCLC) [µM] | TGI (HOP-92 NSCLC) [µM] | GI50 (SNB-19 CNS) [µM] | TGI (SNB-19 CNS) [µM] | GI50 (NCI-H460 lung) [µM] | TGI (NCI-H460 lung) [µM] | GI50 (786-0 renal) [µM] | TGI (786-0 renal) [µM] | GI50 (UACC-257 melanoma) [µM] | TGI (UACC-257 melanoma) [µM] | GI50 (U251 CNS) [µM] | TGI (U251 CNS) [µM] | GI50 (SF-295 CNS) [µM] | TGI (SF-295 CNS) [µM] | GI50 (MOLT-4 leukemia) [µM] | TGI (MOLT-4 leukemia) [µM] | GI50 (SF-539 CNS) [µM] | TGI (SF-539 CNS) [µM] |
| --- | --- | --- | --- | --- | --- | --- | --- | --- | --- | --- | --- | --- | --- | --- | --- | --- | --- | --- | --- | --- |
| CN1C(=O)N[C@H]2[C@@H]3NC(=O)c4ccc(Br)n4[C@@H]3C[C@]21O | 1.81 | 6.75 | 0.0955 | 1.28 | 0.0351 | 0.576 | 0.0403 | 1.5 | 0.223 | 1.82 | 0.108 | 1.52 | 0.0714 | 1.55 | 0.273 | 3.21 | 0.0704 | 0.351 | 0.0825 | 0.447 |
| CC(C)(C)CC(C)(C)NCc1cc(C(C)(C)C)cc(CNC(C)(C)CC(C)(C)C)c1O | 1.92 | 9.91 | 0.548 | 4.2 | 5.24 | 17.8 | 3.49 | 12.9 | 3.85 | 14.4 | 2.21 | 6.52 | 2.86 | 12.2 | 3.23 | 11.7 | 2.93 | 9.34 | 5.16 | 17.8 |
| C=C1CCC2C(C)(COC(=O)CC)C(OC(=O)CC)CCC2(C)C1C/C=C1/C(=O)OCC1OC(=O)CC (stereo not given) | 1.88 | 3.38 | 3.03 | 7.15 | 3.74 | 14.7 | 1.98 | 3.59 | 1.9 | 3.48 | 1.33 | 2.7 | 1.3 | 2.59 | 1.7 | 3.99 | 2.62 | 11.6 | 1.84 | 4.17 |
| COC(=O)c1cc(O)c2c(c1C(=O)OC)C[C@H]1[C@@H]3CC=C4C[C@@H](O)CC[C@]4(C)[C@H]3CC[C@]21C | 2.18 | 4.26 | 2.59 | 8.2 | 4.1 | 23.8 | 3.24 | 12.7 | 2.42 | 6.7 | 2.54 | 7.5 | 1.93 | 7.82 | 1.72 | 4.4 | 2.22 | 5.56 | 2.1 | 6.65 |
| COC(=O)C1[C@H](c2cc(OC)c(OC)c(OC)c2)OC(=O)C1(C(=O)OC)C(=O)c1ccc2c(c1)OCO2 (stereo not given in full) |  | > 100 |  | > 100 |  | > 100 |  | > 100 |  | > 100 |  | > 100 |  | > 100 |  | > 100 |  | > 100 |  | > 100 |
| CC1(CCC(=O)OC2CCCCC2)OCCO1 |  | > 100 |  | > 100 |  | > 100 |  | > 100 |  | > 100 |  | > 100 |  | > 100 |  | > 100 |  | > 100 |  | > 100 |
| FC(F)(F)C1(Br)C(c2ccccc2)=C1c1ccccc1 |  | 33.9 |  | 32.2 |  | 59.2 |  | 80.1 |  | 31 |  | 43 |  | 30.2 |  | 28.7 |  | > 100 |  | 37 |
| COc1cc(Nc2nc3ccccc3cc2C(=O)Nc2ccc(F)c(F)c2)cc(OC)c1OC | 2.51 | 9.35 | 1.98 | 5.75 | 3.55 | > 100 | 3.11 | > 100 | 3.38 | > 100 | 2.6 | 6.28 | 3.36 | > 100 | 2.85 | 10.2 | 2.04 | 6.15 | 3.65 | > 100 |
| CCc1cccc(CC)c1NC(=O)C1=C(C)NC(C)=C(C(=O)Nc2c(CC)cccc2CC)C1c1ccc([N+](=O)[O-])cc1 |  | > 100 |  | 39.6 |  | > 100 |  | 45 |  | 29.2 |  | 53.1 |  | > 100 |  | 38.6 |  | 43.3 |  | 39.8 |
| Cc1nc(N2CCC3(CC2)CO[C@@H](C)[C@H]3N)c(CO)nc1Sc1ccnc(N)c1Cl | 0.973 | > 100 | 0.184 | 2.12 | 14.8 | > 100 | > 100 | > 100 | 12.8 | > 100 | > 90.4 | > 100 | 3.92 | > 100 | 26.6 | > 100 | > 100 | > 100 | 7.43 | > 100 |

— PubChem BioAssay (NCI)
